Where a name gives a salt, the structure may show the parent alone.
What follows are compounds tested on VSV-g pseudotyped HIV vector that expresses luciferase (PHIV) (assay: microbe, parasite or virus in culture). Conditions: Human immunodeficiency virus 1, HEK-293T, 48 h, read-out: PHIV IC50.
Format: cell-based
With COCCN1C[C@@H]2CCCC[C@@H]2N2C(=O)c3c(O)c(=O)c(C(=O)NCc4ccc(F)cc4F)cn3C[C@@H]12 (racemic) [Example Z-54, racemic-(4aS,6aS,14aS)—N-[(2,4-Difluorophenyl)methyl]-12-hydroxy-6-[2-(methyloxy)ethyl]11,13-dioxo-1,2,3,4,4a,5,6,6a,7,11,13,14a-dodecahydropyrido[1′,2′:4,5]pyrazino[1,2-a]quinazoline-10-carboxamide] the IC50 was < 10 nM.
For CC(=O)NCCN1C[C@@H]2CCCC[C@@H]2N2C(=O)c3c(O)c(=O)c(C(=O)NCc4ccc(F)cc4F)cn3C[C@@H]12 (racemic) [Example Z-55], the IC50 was 10 to 100 nM.
C[C@@H]1CO[C@H]2Cn3cc(C(=O)NCc4ccc(F)cc4F)c(=O)c(O)c3C(=O)N12 [Example Z-1, (3R,11aS)—N-[(2,4-Difluorophenyl)methyl]-6-hydroxy-3-methyl-5,7-dioxo-2,3,5,7,11,11a-hexahydro[1,3]oxazolo[3,2-a]pyrido[1,2-d]pyrazine-8-carboxamide sodium salt] was tested, and the IC50 was < 10 nM.
For O=C(NCc1ccc(F)cc1F)c1cn2c(c(O)c1=O)C(=O)N1C[C@@H]3CCCN3[C@H]1C2 [Example Z-2, (4aR,13aS)—N-[(2,4-Difluorophenyl)methyl]-10-hydroxy-9,11-dioxo-2,3,4a,5,9,11,13,13a-octahydro-1H-pyrido[1,2-a]pyrrolo[1′,2′:3,4]imidazo[1,2-d]pyrazine-8-carboxamide], the IC50 was < 10 nM.
With O=C(NCc1ccc(F)cc1F)c1cn2c(c(O)c1=O)C(=O)N1CC[C@@H]3CCCN3[C@@H]1C2 [Example Z-3, (3aS,13aS)—N-[(2,4-Difluorophenyl)methyl]-8-hydroxy-7,9-dioxo-1,2,3,3a,4,5,7,9,13,13a-decahydropyrido-[1′,2′:4,5]pyrazino[1,2-a]pyrrolo[1,2-c]pyrimidine-10-carboxamide] the IC50 was < 10 nM.
In the case of O=C(NCc1ccc(F)cc1F)c1cn2c(c(O)c1=O)C(=O)N1C[C@H]3CCCN3[C@@H]1C2 [Example Z-4, (4aS,13aR)—N-[(2,4-Difluorophenyl)methyl]-10-hydroxy-9,11-dioxo-2,3,4a,5,9,11,13,13a-octahydro-1H-pyrido[1,2-a]pyrrolo[1′,2′:3,4]imidazo[1,2-d]pyrazine-8-carboxamide sodium salt], the IC50 is reported as < 10 nM.
With O=C(NCc1ccc(F)cc1)c1cn2c(c(O)c1=O)C(=O)N1C[C@H]3CCCN3[C@@H]1C2 [Example Z-5, (4aS,13aR)—N-[(4-Fluorophenyl)methyl]-10-hydroxy-9,11-dioxo-2,3,4a,5,9,11,13,13a-octahydro-1H-pyrido[1,2-a]pyrrolo[1′,2′:3,4]imidazo[1,2-d]pyrazine-8-carboxamide] the IC50 was < 10 nM.
In the case of O=C(NCc1ccc(F)cc1F)c1cn2c(c(O)c1=O)C(=O)N1[C@@H](Cc3ccccc3)CO[C@@H]1C2 [Example Z-6, (3S,11aR)—N-[(2,4-Difluorophenyl)methyl]-6-hydroxy-5,7-dioxo-3-(phenylmethyl)-2,3,5,7,11,11a-hexahydro[1,3]oxazolo[3,2-a]pyrido[1,2-d]pyrazine-8-carboxamide], the IC50 is reported as < 10 nM.
For O=C(NCc1ccc(F)cc1)c1cn2c(c(O)c1=O)C(=O)N1CC[C@@H]3CCCN3[C@@H]1C2 [Example Z-7, (3aS,13aS)—N-[(4-Fluorophenyl)methyl]-8-hydroxy-7,9-dioxo-1,2,3,3a,4,5,7,9,13,13a-decahydropyrido[1′,2′:4,5]pyrazino[1,2-a]pyrrolo[1,2-c]pyrimidine-10-carboxamide], the IC50 was < 10 nM.
CC[C@H](C)[C@H]1CO[C@@H]2Cn3cc(C(=O)NCc4ccc(F)cc4F)c(=O)c(O)c3C(=O)N12 [Example Z-8, (3S,11aR)—N-[(2,4-Difluorophenyl)methyl]-6-hydroxy-3-[(1S)-1-methylpropyl]-5,7-dioxo-2,3,5,7,11,11a-hexahydro[1,3]oxazolo[3,2-a]pyrido[1,2-d]pyrazine-8-carboxamide sodium salt] showed an IC50 of 10 to 100 nM.
